This note sets out measurements from patent publication US7589121B2, “Use of furan alkyls for preparing a drug for treating obesity and cosmetically treating overweight” (priority 2004, dated 2009).

Data set [1] relates to GSH-S-transferase (target PXR). Briefly: Analysis of mRNAs in the liver (Q-RT-PCR): GSH-S-transferase. The format is in vivo, mice. The settings on record: TZD. As to the method:
(§1) In the liver, the mRNA expressions of 8 genes were determined in 5 mice of each group using real-time Q-RT-PCR analysis.

For the next data set, the system named is PEPCK (target PPARγ). Briefly: Analysis of mRNAs in the liver (Q-RT-PCR): PEPCK. The format is in vivo, mice. As to conditions: TZD. As to the method:
as §1

For data set [2], the system named is mice fattened on a high fat/high sucrose diet (HF/HS). Briefly: Weight gain / weight of mice on HF/HS diet. The format is in vivo. As to conditions: curative group; TZD added to HF/HS food. As to the method: We used adult mice (aged 6 weeks) of masculine gender fattened on a high fat/high sucrose diet (HF/HS). Feeding with the HF/HS diet began on mice aged 6 weeks and continued throughout the period of the study. The study was conducted along 2 axes: • prevention: the product was administered as soon as feeding began with the HF/HS diet; • management (curative): the product was administered 12 weeks after the start of the HF/HS diet. Total treatment time (preventive and curative): 23 weeks.
Each experimental group comprised 10 mice.

The test system of data set [3] is ME, FAS, ACC (fatty acid synthesis). Briefly: Analysis of mRNAs in the liver (Q-RT-PCR): ME, FAS, ACC. The settings on record: TZD. The data set is classed as in vivo, mice. As to the method: as §1
In data set [4] the test system is PGC-1 (mitochondria biogenesis). Nature of the data set: Analysis of mRNAs in the muscles and BAT: PGC-1. The format is in vivo, mice. The settings on record: TZD. As to the method:
In the brown adipose tissue (BAT) and in the muscles, the mRNA expression of 3 genes was determined in 5 mice of each group by real-time Q-RTR-PCR analysis.

In another data set the test system is ACO (target PPARα). Briefly: Analysis of mRNAs in the liver (Q-RT-PCR): ACO. The format is in vivo, mice. The settings on record: TZD. As to the method: as §1
The subject of a further data set is CYP7A1. Nature of the data set: Analysis of mRNAs in the liver (Q-RT-PCR): CYP7A1. The data set is classed as in vivo, mice. The settings on record: TZD. As to the method: as §1

Take `CN(CCOc1ccc(CC2SC(=O)NC2=O)cc1)c1ccccn1` (stereo not shown) [TZD, Rosiglitazone]: the “GSH-S-transferase (target PXR) mRNA, liver” value in data set [1] is recorded as “⇑”. Besides, the “PEPCK (target PPARγ) mRNA, liver” value in the data set with PEPCK (target PPARγ) is listed as “⇑”. Besides, the “weight loss of overweight mice” value in data set [2] is reported as “did not cause the overweight mice to lose weight”. In data set [3], the “ME, FAS, ACC (fatty acid synthesis) mRNA, liver” value was “⇑⇑”. Besides, the “PGC-1 (mitochondria biogenesis) mRNA, MUSCLE/BAT” value in data set [4] was “⇑ (muscle)”. Besides, the “ACO (target PPARα) mRNA, liver” value in the data set on ACO (target PPARα) was “⇑”. For the same compound, in the data set with CYP7A1, the “CYP7A1 (conversion oxysterol into biliary acids) mRNA, liver” value is “⇑⇑”.
